Here are results for six compounds from PMC9828538, “Antigiardial Activity of Novel Guanidine Compounds” (Chemmedchem, 2022).

Each structure is given as a SMILES string. In brackets after ≈: the same amount, converted by molar mass. Entries after “also recorded” stand apart in the source; their conditions may differ. Read-outs that look alike come from different tables or passages of the source.

In one data set the test system is Giardia. Also noted: method as in PMID 14585063. To be noted: drug treatment of Giardia infection; cited from earlier work.
In a further data set the test system is Giardia duodenalis. In words: Washout / growth recovery of Giardia after 5 h exposure. To be noted: 5 h treatment, 48 h post removal. The format is cell-based.
A further data set deals with CaCo-2 cells. To be noted: human, 24 h, 25 μM. The method, then: (§1) Biology Materials and Methods: […]
(§2) CaCo-2 cells, a human cell line derived from a primary colonic tumour, were sourced from Cellbank Australia and were maintained in MEM supplemented with 2 mM glutamine, 1% non-essential amino acids and 10% FCS (Thermo Scientific). Cells were passaged when confluent, approximately 1-2 times per week. Vero cells were also obtained from Cellbank Australia and maintained as above.
(§3) In vitro drug efficacy assays […]
2007). The media was removed and replaced with an equal volume of warm PBS. Resazurin (Sigma) was then added at 10% of the total volume of the wells. Plates were further incubated for colour development and absorbance read at 570 nm and 630 nm. Resazurin reduction was calculated according to the following formula: […]
(§4) CaCo-2 or Vero cells, maintained as outlined above, were collected via trypsinisation and enumerated using trypan blue and a haemocytometer. Select analogues were prepared in DMSO so that the final concentration in the assay was 25 μM. 1 X 10^5 cells/ml were added to each assay with the appropriate drug dilution. Assays were completed in 96 well plates and incubated for 24 hours at 37°C, 5% CO2 in a humidified incubator. After incubation cells were […]
(§5) washed with warm PBS before the addition of 10% resazurin in PBS. Assays were incubated to allow colour development and absorbance read at 630 and 570nm. Activity of the analogues against mammalian cells was calculated according to the formula stated above.

The test system of data set [1] is Giardia duodenalis trophozoites (BAH2c2 strain). Put plainly: Resazurin reduction assay on Giardia trophozoites in vitro. The format is cell-based. The following applies: for IC50 / MIC: Giardia duodenalis; for MIC: minimum inhibitory concentration, read-out: Antigiardial activity MIC (24 h); for Selectivity ratio: higher ratios = more selective.
Excerpt: (§6) Biology Materials and Methods:
Metronidazole was sourced from sigma.
Chemicals used for the culture of Giardia in vitro were sourced as follows: glucose and L-cysteine (ACROS organics, Thermo Fisher Scientific, Scoresby, Vic), Ammonium Iron (III) citrate, ascorbic Acid (Sigma -aldrich, Castle Hill, NSW), potassium dihydrogen orthophosphate (UNIVAR, Ingleburn, NSW), bovine bi le (Fluka analytical (BD)), di-potassium hydrogen orthophosphate (Fronine laboratory supplies, Riverstone, NSW).
G. duodenalis (BAH2c2 strain) was cultivated according to the method of Clark and Diamond in Keister’s modified TYI-S-33 medium, supplemented with heat inactivated foetal bovine serum (Hyclone™, Thermo Scientific, Scoresby, Vic) at 37°C in plastic 9 mL screw-capped test tubes (nunc). Subcultures were performed once a confluent monolayer was observed, approximately 2 – 3 times per week (Clark and Diamond, 2002).
as §2
(§7) In vitro drug efficacy assays
Resazurin Reduction Assay […]
tested to identify the IC50 and minimum lethal concentration (MLC). For all assays the media of confluent cultures was replaced with fresh media and the cultures were placed on ice for 40 minutes to detach trophozoites.
Trophozoites were enumerated using a haemocytometer and 50 000 trophozoites were added to each test well of a 96 well plate. Either single concentrations (final concentration 25 μM) for the screening assay or tripling dilutions […]
wells. The assays were repeated in triplicate with metronidazole and a DMSO (vehicle only) used as controls. Plates were incubated under anaerobic conditions (anaerogen sachet, Thermofisher scientific) for 5 or 24 hours at 37°C following which the viability of treated cells was determined using the resazurin reduction assay (Benere et al., 2007). The media was removed and replaced with an equal volume of warm PBS. Resazurin (Sigma) was then added at 10% of the total volume of the wells. Plates were further incubated for colour development and absorbance read at 570 nm and 630 nm. Resazurin reduction was calculated according to the following formula: […]
as §4, §5

A further data set is described as follows: In vivo toxicity in mice. To be noted: per os, 100 mg/kg per day for 3 days, 100 mg/kg/day.
A further data set concerns Escherichia coli. Put plainly: Antibacterial activity against gram negative bacteria (E. coli). The class given is cell-based. On the procedure: as §6
Metronidazole was sourced from sigma. […]
hydrogen orthophosphate (Fronine laboratory supplies, Riverstone, NSW).
Subcultures were performed once a confluent
Scientific). […] Vero cells were also obtained from Cellbank Australia and maintained as above.
as §7
Resazurin Reduction Assay
For all assays the media of confluent cultures
2007). […] Resazurin (Sigma) was then
Plates were further incubated for colour development and absorbance read at 570 nm and 630 nm. Resazurin reduction was calculated according to the following formula: […]
broth for a random selection of compounds (Thermofisher Scientific). Compounds were diluted in DMSO to 100X […]
Cells were incubated for 18-24 hrs before interpretation of results. […]
blue and a haemocytometer. […]
was 25 μM. […] Assays were completed
After incubation cells were […]

In another data set the test system is Vero cells. Put plainly: In vitro cytotoxicity, Vero cells. The following applies: Vero cells, 25 μM. The method, then: as §1, §2, §3
The media was removed and replaced with an equal volume of warm PBS. Resazurin (Sigma) was then added at 10% of the total volume of the wells. Plates were further incubated for colour development and absorbance read at 570 nm and 630 nm. Resazurin reduction was calculated according to the following formula: […]
CaCo-2 or Vero cells, maintained as outlined above, were collected via trypsinisation and enumerated using trypan blue and a haemocytometer. Select analogues were prepared in DMSO so that the final concentration in the assay […]
in 96 well plates and incubated for 24 hours at 37°C, 5% CO2 in a humidified incubator. After incubation cells were […]
washed with warm PBS before the addition of 10% resazurin in PBS. Assays were incubated to allow colour development and absorbance read at 630 and 570nm. Activity of the analogues against mammalian cells was calculated according to the formula stated above. […]
reduction assay the mean and standard error of the mean was determined with each assay completed in triplicate.
The IC50 was calculated using the log (inhibitor) vs. normalised response – variable slope function in Graphpad […]

[2] abbreviates: 24 h, read-out: Antigiardial activity IC50 (24 h).
[3] abbreviates: toxicity tested at 25 μM vs 24 h IC50, Tables 1-3.

For `CCCSc1ccc2nc(NC(=O)OC)[nH]c2c1` [albendazole], the “treatment success / reported efficacy” value with Giardia is 62–95%.

As to `CCS(=O)(=O)CCn1c([N+](=O)[O-])cnc1C` [tinidazole], in the data set with Giardia, the “treatment success / reported efficacy” value was 80–90%.

As a reminder, the IC50 is the concentration that gives 50% inhibition. In general, MIC refers to the least concentration at which growth counts as inhibited. As to `Cl.N=C(N/N=C/c1ccc(Cl)cc1)N/N=C/c1ccc(Cl)cc1` [Robenidine 4, robenidine, reference compound], the “Giardia regrowth after compound removal” value in the data set with Giardia duodenalis is reported as “did not result in Giardia regrowth”. In addition, the “Toxicity (% growth control)” value in the data set with CaCo-2 cells was determined as 40.7±22.6%. Further, in data set [1] (setting [2]), the IC50 turned out to be 900 nM. Besides, the MIC in data set [1] (24 h) turned out to be 2.8 µM. In addition, the Selectivity ratio in data set [1] (setting [3]) is listed as over 27.8.

Take `Cc1ncc([N+](=O)[O-])n1CCO` [Metronidazole, metronidazole, reference compound]: the “treatment success / reported efficacy” value in the data set with Giardia was 80–90%. Moreover, the “Antigiardial activity at 5 h” value in data set [1] (5 h, 25 μM) was “inactive”. In addition, in data set [1] (setting [2]), the IC50 worked out at 3800 nM. Besides, the MIC in data set [1] (24 h) came out at 8.3 µM (≈ 1.42 µg/mL). For the same compound, the Selectivity ratio in data set [1] (setting [3]) is reported as over 6.6.

For `COc1cc(Br)c(C=NNC(=N)NN=Cc2cc(OC)c(OC)cc2Br)cc1OC.Cl` [Compound 41, 2,2′‐bis[(2‐bromo‐4,5‐dimethoxyphenyl)methylene]carbonimidic dihydrazide hydrochloride], in the data set on Giardia duodenalis, the “Giardia regrowth after compound removal” value is “no Giardia regrowth; also recorded: did not result in Giardia regrowth”. For the same compound, the IC50 in data set [1] (5 h, read-out: Antigiardial activity IC50 (5 h)) worked out at 200 nM. Moreover, in data set [1] (data not shown), the “time to marked impact on Giardia trophozoites” value lay within 1 to 2 h. Besides, in data set [1] (toxicity tested at 25 μM vs 5 h IC50, Table 4), the Selectivity ratio is listed as over 125. Besides, the “Tolerability in mice (adverse effects)” value in “In vivo toxicity in mice” is “well tolerated; also recorded: no adverse effects”.

On to `Cl.N=C(NN=Cc1ccc(Br)cc1)NN=Cc1ccc(Br)cc1` [Compound 6], for which the “Activity against gram negative bacteria / E. coli” value with Escherichia coli is given as “no antibacterial activity”. Further, the “Toxicity (% growth control)” value in the data set on CaCo-2 cells is recorded as 97.1±1.6%. Moreover, the cell death in the data set with CaCo-2 cells and with Vero cells was under 10% throughout. Further, the IC50 in data set [1] (setting [2]) amounted to 1700 nM. Besides, the MIC in data set [1] (24 h) is 8.3 µM. The Selectivity ratio in data set [1] (setting [3]) is on record as over 14.7.
